Source: paper PMC8009478, “Novel Curcumin-Diethyl Fumarate Hybrid as a Dualistic GSK-3β Inhibitor/Nrf2 Inducer for the Treatment of Parkinson’s Disease” (ACS Chemical Neuroscience, 2020)

Experiments:
[1] = tested on: SH-SY5Y cells; assay: Intracellular GSH levels (MCB probe); type: cell-based, human; conditions: 5 μM; for increase in GSH levels as compared to control: 24 h; for GSH quantity at different times: after 12 and 24 h of treatment (3–24 h studied)
Experimental: By observing the reduction of ROS levels following a long treatment of the curcumin-DEF hybrids before the treatment with t-BuOOH, we hypothesized that the antioxidant effect might likely result from an increase in levels of GSH. This endogenous antioxidant plays critical roles in protecting cells against oxidative stress damage.[32] Thus, the intracellular GSH levels were analyzed by employing the same experimental conditions used to evaluate the indirect antioxidant effect by fluorescent probe monochlorobimane (MCB). […] For the most promising compounds 4 and 5, the effect on GSH levels at different times (3–24 h) was studied.
Figure 4 Effects of compounds 4–7 and DMF on GSH levels in SH-SY5Y cells. Cells were treated with (A) compounds 4–7 (5 μM) and DMF (5 and 10 μM) for 24 h. (B) Cells were treated with compounds 4 and 5 (5 μM) for different times (3, 6, 12, and 24 h). At the end of the treatment, the GSH levels were evaluated by probe MCB. Results are expressed as mean ± SEM of at least three independent experiments (** p < 0.01 and *** p < 0.001 vs untreated cells at one-way ANOVA with the Dunnett post hoc test).
GSH levels were evaluated by using the fluorescent probe MCB, as previously described.[44]

[2] = tested on: Nrf2/ARE; assay: Nrf2/ARE binding activity, ELISA (TransAM Nrf2 Kit); type: cell-based, human; conditions: 6 h; for Nrf2/ARE binding activity: 5 μM; for Nrf2/ARE effect compared to DMF: compounds and DMF at 5 μM
Experimental: In light of these findings, 4 and 5 emerged as the most promising to be further studied regarding their effect on the Nrf2/ARE pathway. […] The maximum ratio between nuclear and cytosolic Nrf2 levels was detected after a 3 h treatment for both compounds, while a slight reduction was observed after 6 h.
Figure 5 Effects of compounds 4 and 5 on the Nrf2/ARE signaling pathway (A and B) and NQO1 gene expression (C) in SH-SY5Y cells. (A) Cells were treated with compounds 4 and 5 (5 μM) for different times (1, 3, and 6 h). Translocation of Nrf2 from the cytosol to the nucleus was evaluated by Western blotting. Data are expressed as a ratio between nuclear Nrf2 and cytoplasmic Nrf2 levels and reported as mean ± SEM of at least three independent experiments. (B) Cells were treated with compounds 4 and 5 (5 μM) and DMF (5 μM) for 6 h. The Nrf2/ARE binding activity was determined by an ELISA assay. Results are expressed as fold increase versus untreated cells and reported as mean ± SEM of at least three independent experiments (** p < 0.01 and * p < 0.05 versus untreated cells at the t-test). (C) Cells were treated with compounds 4 and 5 (5 μM) for different times (6, 12, and 24 h). The NQO1 expression was determined by RT-PCR. Results are expressed as the relative normalized expression and reported as mean ± SEM of at least three independent experiments (*** p < 0.001 versus untreated cells at one-way ANOVA with the Dunnett post hoc test).
The levels of active Nrf2 protein were determined on the nuclear extracts (10 μg, see above) by using the DNA-binding ELISA TransAM Nrf2 Kit (Active Motif), according to the manufacturer’s guidelines. In detail, the kit comprises a primary antibody able to recognize an epitope on Nrf2 protein upon ARE binding. In the treated cells, the amount of active Nrf2 protein is expressed as a fold increase in comparison to the corresponding untreated cells.

[3] = tested on: C. elegans BY250 [vtIs7 (Pdat-1:GFP)] CEP neurons; assay: 6-OHDA-induced neurodegeneration of CEP neurons in the C. elegans model of PD; type: in vivo, Caenorhabditis elegans; conditions: cotreatment 5 μM with 6-OHDA 5 mM for 30 min, scored after 72 h
From the text: The nematode Caenorhabditis elegans (C. elegans) has been increasingly employed as a genetically tractable in vivo model to study the molecular mechanisms involved in several NDDs due to a short life cycle, fast reproduction, and a highly conserved inheritance (genetic basis).[35] This invertebrate model offers the opportunity to take advantage of the significant conservation of genes and metabolic pathways common to both invertebrates and humans. At the neuronal level, the adult wild-type C. elegans organism contains only eight DA neurons that repeat the features of DA neurons of mammalian, making it possible to simplify the investigations considerably. In the transgenic BY250 [vtIs7 (Pdat-1:GFP)] strain, six DA neurons in the head, namely the four sensory cephalic (CEP) and the two anterior deirid (ADE) neurons, express the green fluorescent protein (GFP) and can be clearly visualized by fluorescence microscopy analysis and thus scored over time.[36] Indeed, in this model, investigations of DA neurons degeneration in vivo are feasible through a first exposition of the nematode to PD-inducing toxin, namely 6-OHDA, followed by direct visualization of the GFP-labeled DA neurons.[37] It is thus possible to screen small molecules for their anti-PD potential, in terms of rescue of the DA neurodegeneration phenotype manifested upon neurotoxin exposure, through visualization and scoring of the alterations of CEP neuron count or neuronal morphology. […] This effect makes it possible the identification of neuroprotective agents with the ability to activate Nrf2 through the inhibition of GSK-3.[38] The curcumin-DEF hybrids 4 and 5 were investigated in the above C. elegans model for their protective effects on 6-OHDA-induced degeneration of a subclass of DA neurons. Animals were incubated with 5 μM concentration of 4 and 5, in the presence of 5 mM of 6-OHDA, for 30 min. After 72 h, the animals were studied by examining the four CEP neurons. Degenerating CEP neurons were morphologically analyzed and quantified (Figure 8). We recorded that in animals treated with 6-OHDA, 68% of CEP neurons degenerated.
Figure 8 Effects of 4 and 5 on 6-OHDA-induced neurodegeneration in C. elegans. Animals were treated with 4 or 5 (5 μM) in the presence of 6-OHDA (5 mM) for 30 min. At the end of incubation, treated animals were placed on fresh agar plates for 72 h and then visualized as described in the Materials and Methods section. (A) In nontreated vtIs7 [pdat-1::GFP] transgenic animals, dopaminergic neurons express GFP, with two of the four CEP cell bodies (white arrows) and relative dendrites (arrowheads) visible in this focal plane in the head. (B) 6-OHDA treatment causes the degeneration of CEP dendrites (empty arrowheads) and two cell bodies (gray arrows), in treated animals. The other two CEP neurons are not visible anymore. (C) Compound 5 cotreatment partially rescues the 6-OHDA-induced toxic effects, with degeneration of one of the CEP dendrites (empty arrowhead) but not the other (arrowhead) and with one CEP cell body still viable (white arrow) and one dying (gray arrow) in this focal plane. […] ADE neurons, which are less affected by 6-OHDA treatment, are also visible but were not scored (asterisks). (D) Quantification of degenerating CEP neurons. Data are expressed as percentages of degenerating neurons and reported as mean ± SEM of at least three independent experiments. […]

SMILES	increase in GSH levels as compared to control [1] [fold]	GSH quantity at different times [1]	Nrf2/ARE binding activity [2]	Nrf2/ARE effect compared to DMF [2]	degenerating CEP neurons [3] [%]	rescue of the 6-OHDA-induced degeneration phenotype [3]
CCOC(=O)/C=C/C(C(=O)/C=C/c1ccc(OC)cc1)=C(O)\C=C\c1ccc(OCc2ccccc2)cc1 [Compound 5, Ethyl (2E,4Z,6E)-7-(4-(Benzyloxy)phenyl)-5-hydroxy-4-((E)-3-(4-methoxyphenyl)acryloyl)hepta-2,4,6-trienoate]	4	significant increase	increase in Nrf2/ARE binding activity	superior effects to DMF	55	partial rescue
CCOC(=O)/C=C/C(C(=O)/C=C/c1ccc(OC)cc1)=C(O)\C=C\c1ccc(OC)cc1 [Compound 4, Ethyl (2E,4Z,6E)-5-Hydroxy-7-(4-methoxyphenyl)-4-((E)-3-(4-methoxyphenyl)acryloyl)hepta-2,4,6-trienoate]	4	significant increase	increase in Nrf2/ARE binding activity	superior effects to DMF	67	no rescue
